Source: patent US10806746B2, “Di- and tri-cationic glycosylated antitumor ether lipids, L-gucosylated gaels and rhamnose-linked gaels as cytotoxic agents against epithelial cancer cells and cancer stem cells” (The University of Manitoba, priority 2014, dated 2020)
Read-outs that look alike come from different tables or passages of the source.

What was measured:
Type in all cases: cell-based, human
[1] = test system: MDA-MB-231 cells; assay: MTS viability assay, MDA-MB-231 breast cancer cells
Experimental: (§1) FIG. 2A. Effects of compounds 1-11 on the viability of MDA-MB231 cells. MDA-MB-231 cells were cultured in DMEM medium supplemented with 10% FBS. Equal numbers were dispersed into 96-well plates. After 24 h, the cells were incubated with compounds 1-11 (0-30 μM) for 48 h. At the end of the incubation, MTS reagent (20% vol/vol) was added and the plates were incubated for 1-4 h. The OD490 was read with a plate reader. Wells with media but no cells were treated in similar fashion and the values utilized as blank. The results represent the mean±standard deviation of 6 independent determinations.
as §1, with “2K.” for “2A.”, “1, 69-72” for “1-11”, “MDA-MB-231” for “MDA-MB231”, “1, 69-72” for “1-11 (0-30 μM)”
(§2) The cell lines were cultured from frozen stocks originally obtained from ATCC. MDA-MB-231, JIMT-1, DU145, U81, U251 cells were grown in DMEM medium. BT474, A2780s, A2780cp cells were grown in DMEM/F12 medium supplemented with 10% FBS. MiaPaCa2 was cultured in DMEM supplemented with 10% FBS and 2.5% horse serum. PC3 cells were cultured in F12K medium supplemented with 10% FBS. All the media were supplemented with penicillin/streptomycin.
(§3) The effects of the GAELs on the viability of the various epithelial cancer cell lines was determined as previously described. Briefly, equal numbers of the cells were dispersed into 96-well plates. After 24 h, the cells were incubated with the compounds (0-30 μM) for 48 h. At the end of the incubation, MTS reagent (20% vol/vol) was added and the plates were incubated for 1-4 h. The OD490 was read with a plate reader. Wells with media but no cells were treated in similar fashion and the values utilized as blank. The results represent the mean±standard deviation of 6 independent determinations.

[2] = test system: DU145 cells; assay: MTS viability assay, DU145 prostate cancer cells
Experimental: as §1, with “2D.” for “2A.”, “DU145” for “MDA-MB231”, “DU145” for “MDA-MB-231”
as §1, with “2H. Effect” for “2A. Effects”, “1, 69-72” for “1-11”, “DU145” for “MDA-MB231”, “DU145” for “MDA-MB-231”, “1, 69-72” for “1-11 (0-30 μM)”
as §2, §3

[3] = test system: MiaPaCa2 cells; assay: MTS viability assay, MiaPaCa2 pancreas cancer cells
Experimental: as §1, with “2F.” for “2A.”, “MiaPaCa2” for “MDA-MB231”, “MiaPaCa2” for “MDA-MB-231”, “FBS and 2.5% horse serum.” for “FBS.”
as §1, with “2I.” for “2A.”, “1, 69-72” for “1-11”, “MiaPaCa2” for “MDA-MB231”, “MiaPaCa2” for “MDA-MB-231”, “FBS and 2.5% horse serum.” for “FBS.”, “1, 69-72” for “1-11 (0-30 μM)”
as §2, §3

[4] = test system: PC3 cells; assay: MTS viability assay, PC3 prostate cancer cells
Experimental: as §1, with “2E.” for “2A.”, “PC3” for “MDA-MB231”, “PC3” for “MDA-MB-231”, “F12K” for “DMEM”
as §2, §3

[5] = test system: BT-474, JIMT-1, MDA-MB-231 (breast), DU145, PC3 (prostate), MiaPaCa2 (pancreas); assay: MTS viability, panel of epithelial cancer cell lines (ranges over the cell lines); conditions: for CC50: read-out: CC50 values, range depending on the cell line
Experimental: To determine the effect of compounds 1-10 on the viability of the epithelial cancer cell lines, exponentially growing cells, BT-474, JIMT-1, MDA-MB-231 (breast), DU145, PC3 (prostate), MiaPaCa2 (pancreas) were incubated with varying concentrations of 1-8 (0-30 μM) for 48 h followed by viability assays with the MTS reagent.
as §3

[6] = Table 1A, 48 h, read-out: CC50 values MD 231
[7] = Table 1B, 48 h, read-out: CC90 values MD 231
[8] = Table 1A, 48 h, read-out: CC50 values DU 145
[9] = Table 1B, 48 h, read-out: CC90 values DU 145
[10] = Table 1A, 48 h, read-out: CC50 values MiaPaCa2
[11] = Table 1B, 48 h, read-out: CC90 values MiaPaCa2
[12] = Table 1A, 48 h, MTS, read-out: CC50 values PC3
[13] = Table 1B, 48 h, MTS, read-out: CC90 values PC3
[14] = range over the cell lines tested, 48 h
[15] = Homo sapiens, MDA-MB-231, Table 5, 48 h, read-out: CC50 MDA-MB-231
[16] = Homo sapiens, MDA-MB-231, Table 5, 48 h, read-out: CC90 MDA-MB-231
[17] = Homo sapiens, DU-145, Table 5, 48 h, read-out: CC50 DU-145
[18] = Homo sapiens, DU-145, Table 5, 48 h, read-out: CC90 DU-145
[19] = Homo sapiens, MIA PaCa-2, Table 5, 48 h, read-out: CC50 Mlapaca2
[20] = Homo sapiens, MIA PaCa-2, Table 5, 48 h, read-out: CC90 Mlapaca2
[21] = Homo sapiens, PC-3, Table 5, 48 h, MTS, read-out: CC50 PC3
[22] = Homo sapiens, PC-3, Table 5, 48 h, MTS, read-out: CC90 PC3
[23] = Homo sapiens, range over the cell lines tested, 48 h

| Compound | CC50 [1, 6] [µM] | CC90 [1, 7] [µM] | CC50 [2, 8] [µM] | CC90 [2, 9] [µM] | CC50 [3, 10] [µM] | CC90 [3, 11] [µM] | CC50 [4, 12] [µM] | CC90 [4, 13] [µM] | CC50 [5, 14] [µM] | CC50 [1, 15] [µM] | CC90 [1, 16] [µM] | CC50 [2, 17] [µM] | CC90 [2, 18] [µM] | CC50 [3, 19] [µM] | CC90 [3, 20] [µM] | CC50 [4, 21] [µM] | CC90 [4, 22] [µM] | CC50 [5, 23] [µM] | also measured |
| --- | --- | --- | --- | --- | --- | --- | --- | --- | --- | --- | --- | --- | --- | --- | --- | --- | --- | --- | --- |
| CCCCCCCCCCCCCCCCOCC(CO[C@@H]1O[C@H](CN)[C@@H](O)[C@H](O)[C@H]1N)O[C@@H]1O[C@H](CN)[C@@H](O)[C@H](O)[C@H]1N (stereo partly drawn) [Compound 5, 1-O-Hexadecyloxy-2S/R, 3-di(-2′,6′-diamino-2′, 6′-dideoxy-β-D-glucopyranosyl)-glycerol] | > 30 | > 30 | > 30 | > 30 | > 30 | > 30 | > 30 | > 30 | > 30 |  |  |  |  |  |  |  |  |  |  |
| CCCCCCCCCCCCCCCCOC[C@H](CO[C@H]1O[C@H](CN)[C@@H](O)[C@H](O)[C@H]1N)OC [Compound 1, 1-O-Hexadecyl-2-O-methyl-3-O-(2′,6′-diamino-2′,6′-dideoxy-α-D-glucopyranosyl)-sn-glycerol] |  |  |  |  |  |  |  |  |  | 3 | 4.5 | 5.2 | 7.4 | 3.5 | 6.5 | 3.5 | 6 | 3 to 7.5 | CC50 ([1]; Homo sapiens, MDA-MB-231, Table 1A, 48 h, read-out: CC50 values MD 231): 3 µM; CC90 ([1]; Homo sapiens, MDA-MB-231, Table 1B, 48 h, read-out: CC90 values MD 231): 4.5 µM; CC50 ([2]; Homo sapiens, DU-145, Table 1A, 48 h, read-out: CC50 values DU 145): 5.2 µM; CC90 ([2]; Homo sapiens, DU-145, Table 1B, 48 h, read-out: CC90 values DU 145): 7.4 µM; CC50 ([3]; Homo sapiens, MIA PaCa-2, Table 1A, 48 h, read-out: CC50 values MiaPaCa2): 3.5 µM; CC90 ([3]; Homo sapiens, MIA PaCa-2, Table 1B, 48 h, read-out: CC90 values MiaPaCa2): 6.5 µM; CC50 ([4]; Homo sapiens, PC-3, Table 1A, 48 h, MTS, read-out: CC50 values PC3): 3.5 µM; CC90 ([4]; Homo sapiens, PC-3, Table 1B, 48 h, MTS, read-out: CC90 values PC3): 6 µM; CC90 ([5]; Homo sapiens, range over the cell lines tested, 48 h, read-out: CC90 (90% loss of cell viability), range depending on cell lines): 4.5 to 9.5 µM |
| CCCCCCCCCCCCCCCCOC[C@H](COC1O[C@H](CNCCCCCCCCCCCCN)[C@@H](O)[C@H](O)[C@H]1N)OC (stereo partly shown) [Compound 73, 1-O-Hexadecyl-2-O-methyl-3-O-[6′-N-(12-aminododecyl)-2′,6′-diamino-2′,6′-dideoxy-glucopyranoside]-sn-glycerol] |  |  |  |  |  |  |  |  | 1.5 to 4 |  |  |  |  |  |  |  |  |  | CC50 ([1]; Table 6, 48 h, read-out: MB-MDA-231 CC50): 1.5 µM; CC90 ([1]; Table 6, 48 h, read-out: MB-MDA-231 CC90): 3.8 µM; CC50 ([2]; Table 6, 48 h, read-out: DU145 CC50): 3.8 µM; CC90 ([2]; Table 6, 48 h, read-out: DU145 CC90): 4.8 µM; CC50 ([3]; Table 6, 48 h, read-out: MiaPaCa2 CC50): 4 µM; CC90 ([3]; Table 6, 48 h, read-out: MiaPaCa2 CC90): 6.6 µM; CC50 ([4]; Table 6, 48 h, MTS, read-out: PC3 CC50): 2 µM; CC90 ([4]; Table 6, 48 h, MTS, read-out: PC3 CC90): 3.2 µM; cytotoxicity against all cell lines examined ([5]; tricationic GAELs, FIG. 2O, Table 6): cytotoxic |
| CCCCCCCCCCCCCCCCOCCCO[C@@H]1O[C@H](CN)[C@@H](O)[C@H](O)[C@H]1N [Compound 4, 1-O-Hexadecyl-2-deoxy-3-O-(2′6′-diamino-2′,6′-dideoxy-β-D-glucopyranosyl)-sn-glycerol] | 4.5 | 7 | 6 | 8.5 | 6.5 | 13 | 8 | 14 | 4 to 8.5 |  |  |  |  |  |  |  |  |  |  |
| CCCCCCCCCCCCCCCCOCC(CO[C@@H]1OC(CO)[C@H](O)[C@H](O)C1N)OC (stereo partly shown) [Compound 69] |  |  |  |  |  |  |  |  |  | 11 | 17 | 12.5 | 16 | 7.5 | 18 | 12.5 | 16 | 6.5 to 12.5 | CC50 ([1]; Homo sapiens, MDA-MB-231, Table 2A, 48 h, read-out: CC50 values MDA-MB-231): 11 µM; CC90 ([1]; Homo sapiens, MDA-MB-231, Table 2B, 48 h, read-out: CC90 values MDA-MB-231): 17 µM; CC50 ([2]; Homo sapiens, DU-145, Table 2A, 48 h, read-out: CC50 values DU 145): 12.5 µM; CC90 ([2]; Homo sapiens, DU-145, Table 2B, 48 h, read-out: CC90 values DU 145): 16 µM; CC50 ([3]; Homo sapiens, MIA PaCa-2, Table 2A, 48 h, read-out: CC50 values MiaPaCa2): 7.5 µM; CC90 ([3]; Homo sapiens, MIA PaCa-2, Table 2B, 48 h, read-out: CC90 values MiaPaCa2): 18 µM; CC50 ([4]; Homo sapiens, PC-3, Table 2A, 48 h, MTS, read-out: CC50 values PC3): 12.5 µM; CC90 ([4]; Homo sapiens, PC-3, Table 2B, 48 h, MTS, read-out: CC90 values PC3): 16 µM |
| CCCCCCCCCCCCCCCCOC[C@@H](CN=[N+]=[N-])O[C@@H]1O[C@H](CO)[C@@H](O)[C@H](O)[C@H]1N [Compound 6, 1-O-Hexadecyloxy-2R-(2′-amino-2′-deoxy-β-D-glucopyranosyl)-3-azido glycerol] | 11 | 15 | 12.5 | 18 | 11.5 | 18.5 | 6 | 15 | 6 to 22 |  |  |  |  |  |  |  |  |  | CC50 ([4]; read-out: CC50 against PC-3 cell lines): 6 µM |
